# Results reported in patent publication US7169786B2, “Isoxazoline derivatives as anti-depressants” (priority 2001, dated 2007).
# Assays:
# [1] = target: T1, h5-HT transporter (Homo sapiens, UniProt P31645); assay: Radioligand binding experiment for 5-HT transporter ([3H]paroxetine, human platelet membranes); settings: human platelet membranes; [3H]paroxetine 0.5 nM; read-out: 5HTT pIC50 (converted)
# T1 construct: Human platelet membranes (Oceanix Biosciences Corporation, Hanover, Md., USA) were thawed; tissue Oceanix Biosciences Corporation, Hanover, Md., USA; host or cells: human platelet membranes
# T1 sequence (P31645 whole entry): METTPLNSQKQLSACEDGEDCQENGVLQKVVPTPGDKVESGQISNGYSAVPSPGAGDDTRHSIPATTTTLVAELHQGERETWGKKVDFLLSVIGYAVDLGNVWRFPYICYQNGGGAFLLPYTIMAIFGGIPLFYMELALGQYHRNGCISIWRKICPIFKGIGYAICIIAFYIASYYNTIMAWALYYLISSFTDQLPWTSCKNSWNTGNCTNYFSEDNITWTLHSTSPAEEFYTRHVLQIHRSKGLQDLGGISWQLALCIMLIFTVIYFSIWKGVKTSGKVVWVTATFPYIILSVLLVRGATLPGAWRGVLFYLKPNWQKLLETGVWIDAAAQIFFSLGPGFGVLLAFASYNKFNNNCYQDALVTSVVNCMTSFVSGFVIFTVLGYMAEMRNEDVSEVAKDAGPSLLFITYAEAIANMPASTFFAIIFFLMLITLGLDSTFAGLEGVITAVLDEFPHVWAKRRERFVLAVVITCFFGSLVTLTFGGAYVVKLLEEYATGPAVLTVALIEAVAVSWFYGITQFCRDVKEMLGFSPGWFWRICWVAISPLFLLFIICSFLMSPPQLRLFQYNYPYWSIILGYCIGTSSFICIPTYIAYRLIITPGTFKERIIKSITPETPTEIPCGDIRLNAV
# Outline: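 Competition binding of [^3H]paroxetine to human platelet membranes in Tris-HCl 50 mM, 120 mM NaCl, 5 mM KCl; filter-bound radioactivity counted.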
# [2] = target: T2, hα2C receptor (Homo sapiens, UniProt P18825); assay: Radioligand binding experiment for hα2C receptor ([3H]-raulwolscine); settings: membranes of CHO cells expressing human α2C receptor; [3H]raulwolscine 1 nM; read-out: hα2C pIC50 (converted)
# T2 construct: expressed in transfected cells
# T2 sequence (P18825 1-462): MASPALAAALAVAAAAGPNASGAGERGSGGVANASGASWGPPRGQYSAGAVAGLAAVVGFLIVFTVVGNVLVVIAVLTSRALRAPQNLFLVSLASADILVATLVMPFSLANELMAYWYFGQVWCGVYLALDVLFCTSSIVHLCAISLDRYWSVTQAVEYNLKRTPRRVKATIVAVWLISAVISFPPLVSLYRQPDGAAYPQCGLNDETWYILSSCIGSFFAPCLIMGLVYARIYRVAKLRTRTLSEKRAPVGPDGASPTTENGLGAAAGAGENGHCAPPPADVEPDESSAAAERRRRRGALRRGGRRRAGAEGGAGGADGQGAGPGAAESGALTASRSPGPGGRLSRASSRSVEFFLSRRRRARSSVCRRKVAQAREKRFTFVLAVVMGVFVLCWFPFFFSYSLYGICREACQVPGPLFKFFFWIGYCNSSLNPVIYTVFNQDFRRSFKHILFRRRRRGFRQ
# Outline: (§1)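 Competition binding with [3H]-rauwolscine on membranes from CHO cells stably expressing human α2A, α2B or α2C receptors (sodium butyrate-induced), in 25 mM glycylglycine pH 8.0; filtration and scintillation counting.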
# [3] = target: T3, hα2B receptor (Homo sapiens, UniProt P18089); assay: Radioligand binding experiment for hα2B receptor ([3H]-raulwolscine); settings: membranes of CHO cells expressing human α2B receptor; [3H]raulwolscine 1 nM; read-out: hα2B pIC50 (converted)
# T3 construct: expressed in transfected cells
# T3 sequence (P18089 1-450): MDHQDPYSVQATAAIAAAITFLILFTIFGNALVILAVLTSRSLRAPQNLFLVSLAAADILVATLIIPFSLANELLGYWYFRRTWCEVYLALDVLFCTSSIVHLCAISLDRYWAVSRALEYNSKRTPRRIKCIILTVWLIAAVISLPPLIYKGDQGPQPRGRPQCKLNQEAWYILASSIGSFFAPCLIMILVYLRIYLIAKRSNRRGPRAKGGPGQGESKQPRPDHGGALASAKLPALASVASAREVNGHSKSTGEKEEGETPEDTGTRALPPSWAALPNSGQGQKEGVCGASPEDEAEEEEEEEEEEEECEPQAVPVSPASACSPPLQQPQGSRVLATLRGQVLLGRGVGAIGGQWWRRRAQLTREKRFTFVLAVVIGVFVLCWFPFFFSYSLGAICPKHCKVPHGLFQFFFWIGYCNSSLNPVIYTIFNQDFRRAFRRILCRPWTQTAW
# Outline: as §1
# [4] = target: T4, hα2A receptor (Homo sapiens, UniProt P08913); assay: Radioligand binding experiment for hα2A receptor ([3H]-raulwolscine); settings: membranes of CHO cells expressing human α2A receptor; [3H]raulwolscine 1 nM; read-out: hα2A pIC50 (converted)
# T4 construct: expressed in transfected cells
# T4 sequence (P08913 1-465): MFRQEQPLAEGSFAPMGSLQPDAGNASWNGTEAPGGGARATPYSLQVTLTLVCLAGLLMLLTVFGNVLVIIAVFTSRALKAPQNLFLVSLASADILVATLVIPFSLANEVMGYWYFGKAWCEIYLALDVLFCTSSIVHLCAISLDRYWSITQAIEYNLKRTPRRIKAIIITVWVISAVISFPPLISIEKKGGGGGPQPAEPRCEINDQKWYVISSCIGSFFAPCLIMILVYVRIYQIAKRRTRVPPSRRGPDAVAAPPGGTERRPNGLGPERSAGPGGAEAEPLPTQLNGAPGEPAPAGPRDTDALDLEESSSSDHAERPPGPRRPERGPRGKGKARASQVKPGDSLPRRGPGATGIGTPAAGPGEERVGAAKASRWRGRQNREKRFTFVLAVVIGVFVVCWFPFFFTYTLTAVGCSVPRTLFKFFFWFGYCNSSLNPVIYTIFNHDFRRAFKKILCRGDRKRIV
# Outline: as §1
IC50 [1] [nM],IC50 [2] [nM],IC50 [3] [nM],IC50 [4] [nM],SMILES
14.8,27.5,20.9,3.47,COc1ccc2c(c1)OCC1C2=NOC1CN1CCN(Cc2ccc3ccccc3c2)CC1 (centres unmarked) [Compound 265]
30.2,4.68,3.8,4.79,"COc1cc2c(cc1OC(C)=O)C1=NOC(CN3CCN(C/C(C)=C/c4ccccc4)CC3)C1CO2 (single isomer, unassigned) [Compound 333]"
63.1,25.7,123,141,"COc1cc2c(cc1OC)C1=NOC(CN3CCN(C/C=C/C=C/c4ccccc4)CC3)C1CO2 (single isomer, unassigned) [Compound 127]"
23.4,324,776,282,COc1cc2c(cc1OC)C1=NOC(CN3CCN(CC=Cc4ccc5ccccc5c4)CC3)C1CO2 (centres unmarked) [Compound 181]
17,11.5,14.5,12.6,COc1cc2c(cc1OC)C1=NOC(CN3CCN(CCCc4ccccc4)CC3)C1CO2 (centres unmarked) [Compound 32]
